Reference: US11793849B2, “Method of Chinese herbal medicine extract used for treating multiple diseases caused by drug resistant bacteria infection” (priority 2016, dated 2023)
In brackets after ≈: the same amount, converted by molar mass. Read-outs that look alike come from different tables or passages of the source.

Tested on: MDRAB
Assay: MIC determination, microdilution broth method
Assay type: cell-based, Acinetobacter baumannii
Conditions: Acinetobacter baumannii, read-out: MIC
Procedure: Determination methods of a Minimal Inhibitory Concentration (MIC) and a Minimum Bactericidal Concentration (MBC) of a test product: the MIC and the MBC of the Pithecellobium clypearia Benth water or ethanol extract to the MDRAB are determined by a microdilution broth method. And it is operated by referring to the microdilution broth method recommended by National Committee for Clinical Laboratory Standards (NCCLS).

Structure (SMILES): C[C@@H](O)[C@H]1C(=O)N2C(C(=O)O)=C(SCCN=CN)C[C@H]12 [IMP, imipenem]
- MIC (strain A1, EA=60% ethanol extract): 1 µg/mL (≈ 3.34 µM)
- MIC (strain A1, EA=95% ethanol extract): 1 µg/mL (≈ 3.34 µM)
- MIC (strain A1, single use, EA=10% ethanol extract): 1 µg/mL (≈ 3.34 µM)
- MIC (strain A1, single use, EA=water extract): 1 µg/mL (≈ 3.34 µM)
- MIC (strain A2, EA=60% ethanol extract): 32 µg/mL (≈ 107 µM)
- MIC (strain A2, EA=95% ethanol extract): 32 µg/mL (≈ 107 µM)
- MIC (strain A2, single use, EA=10% ethanol extract): 32 µg/mL (≈ 107 µM)
- MIC (strain A2, single use, EA=water extract): 32 µg/mL (≈ 107 µM)
- MIC (strain A3, EA=60% ethanol extract): 32 µg/mL (≈ 107 µM)
- MIC (strain A3, EA=95% ethanol extract): 32 µg/mL (≈ 107 µM)
- MIC (strain A3, single use, EA=10% ethanol extract): 32 µg/mL (≈ 107 µM)
- MIC (strain A3, single use, EA=water extract): 32 µg/mL (≈ 107 µM)
- MIC (strain A4, EA=60% ethanol extract): 8 µg/mL (≈ 26.7 µM)
- MIC (strain A4, EA=95% ethanol extract): 8 µg/mL (≈ 26.7 µM)
- MIC (strain A4, single use, EA=10% ethanol extract): 8 µg/mL (≈ 26.7 µM)
- MIC (strain A4, single use, EA=water extract): 8 µg/mL (≈ 26.7 µM)
- MIC (strain A5, EA=60% ethanol extract): 32 µg/mL (≈ 107 µM)
- MIC (strain A5, EA=95% ethanol extract): 32 µg/mL (≈ 107 µM)
- MIC (strain A5, single use, EA=10% ethanol extract): 32 µg/mL (≈ 107 µM)
- MIC (strain A5, single use, EA=water extract): 32 µg/mL (≈ 107 µM)
- MIC (strain A6, EA=60% ethanol extract): 32 µg/mL (≈ 107 µM)
- MIC (strain A6, EA=95% ethanol extract): 32 µg/mL (≈ 107 µM)
- MIC (strain A6, single use, EA=10% ethanol extract): 32 µg/mL (≈ 107 µM)
- MIC (strain A6, single use, EA=water extract): 32 µg/mL (≈ 107 µM)
- MIC (strain A7, EA=60% ethanol extract): 32 µg/mL (≈ 107 µM)
- MIC (strain A7, EA=95% ethanol extract): 32 µg/mL (≈ 107 µM)
- MIC (strain A7, single use, EA=10% ethanol extract): 32 µg/mL (≈ 107 µM)
- MIC (strain A7, single use, EA=water extract): 32 µg/mL (≈ 107 µM)
- MIC (strain A8, EA=60% ethanol extract): 32 µg/mL (≈ 107 µM)
- MIC (strain A8, EA=95% ethanol extract): 32 µg/mL (≈ 107 µM)
- MIC (strain A8, single use, EA=10% ethanol extract): 32 µg/mL (≈ 107 µM)
- MIC (strain A8, single use, EA=water extract): 32 µg/mL (≈ 107 µM)
- MIC (strain A9, EA=60% ethanol extract): 32 µg/mL (≈ 107 µM)
- MIC (strain A9, EA=95% ethanol extract): 32 µg/mL (≈ 107 µM)
- MIC (strain A9, single use, EA=10% ethanol extract): 32 µg/mL (≈ 107 µM)
- MIC (strain A9, single use, EA=water extract): 32 µg/mL (≈ 107 µM)
- MIC (strain A10, EA=60% ethanol extract): 16 µg/mL (≈ 53.4 µM)
- MIC (strain A10, EA=95% ethanol extract): 16 µg/mL (≈ 53.4 µM)
- MIC (strain A10, single use, EA=10% ethanol extract): 16 µg/mL (≈ 53.4 µM)
- MIC (strain A10, single use, EA=water extract): 16 µg/mL (≈ 53.4 µM)
- MIC (strain A11, EA=60% ethanol extract): 32 µg/mL (≈ 107 µM)
- MIC (strain A11, EA=95% ethanol extract): 32 µg/mL (≈ 107 µM)
- MIC (strain A11, single use, EA=10% ethanol extract): 32 µg/mL (≈ 107 µM)
- MIC (strain A11, single use, EA=water extract): 32 µg/mL (≈ 107 µM)
- MIC (strain A12, EA=60% ethanol extract): 32 µg/mL (≈ 107 µM)
- MIC (strain A12, EA=95% ethanol extract): 32 µg/mL (≈ 107 µM)
- MIC (strain A12, single use, EA=10% ethanol extract): 32 µg/mL (≈ 107 µM)
- MIC (strain A12, single use, EA=water extract): 32 µg/mL (≈ 107 µM)
- MIC (strain A13, EA=60% ethanol extract): 32 µg/mL (≈ 107 µM)
- MIC (strain A13, EA=95% ethanol extract): 32 µg/mL (≈ 107 µM)
- MIC (strain A13, single use, EA=10% ethanol extract): 32 µg/mL (≈ 107 µM)
- MIC (strain A13, single use, EA=water extract): 32 µg/mL (≈ 107 µM)
- MIC (strain A14, EA=60% ethanol extract): 32 µg/mL (≈ 107 µM)
- MIC (strain A14, EA=95% ethanol extract): 32 µg/mL (≈ 107 µM)
- MIC (strain A14, single use, EA=10% ethanol extract): 32 µg/mL (≈ 107 µM)
- MIC (strain A14, single use, EA=water extract): 32 µg/mL (≈ 107 µM)
- MIC (strain A15, EA=60% ethanol extract): 32 µg/mL (≈ 107 µM)
- MIC (strain A15, EA=95% ethanol extract): 32 µg/mL (≈ 107 µM)
- MIC (strain A15, single use, EA=10% ethanol extract): 32 µg/mL (≈ 107 µM)
- MIC (strain A15, single use, EA=water extract): 32 µg/mL (≈ 107 µM)
- MIC (strain A16, EA=60% ethanol extract): 32 µg/mL (≈ 107 µM)
- MIC (strain A16, EA=95% ethanol extract): 32 µg/mL (≈ 107 µM)
- MIC (strain A16, single use, EA=10% ethanol extract): 32 µg/mL (≈ 107 µM)
- MIC (strain A16, single use, EA=water extract): 32 µg/mL (≈ 107 µM)
- MIC (strain A17, EA=60% ethanol extract): 16 µg/mL (≈ 53.4 µM)
- MIC (strain A17, EA=95% ethanol extract): 16 µg/mL (≈ 53.4 µM)
- MIC (strain A17, single use, EA=10% ethanol extract): 16 µg/mL (≈ 53.4 µM)
- MIC (strain A17, single use, EA=water extract): 16 µg/mL (≈ 53.4 µM)
- MIC (strain A18, EA=60% ethanol extract): 32 µg/mL (≈ 107 µM)
- MIC (strain A18, EA=95% ethanol extract): 32 µg/mL (≈ 107 µM)
- MIC (strain A18, single use, EA=10% ethanol extract): 32 µg/mL (≈ 107 µM)
- MIC (strain A18, single use, EA=water extract): 32 µg/mL (≈ 107 µM)
- MIC (strain A19, EA=60% ethanol extract): 32 µg/mL (≈ 107 µM)
- MIC (strain A19, EA=95% ethanol extract): 32 µg/mL (≈ 107 µM)
